Measured values as given in ChEMBL document CHEMBL1155749, “Five new polyoxygenated cholestane bisdesmosides from the bulbs of Galtonia candicans” (J Nat Prod, 2001).
≈ marks a conversion by molar mass, not a printed value.

System: HL-60
Assay: Cytotoxicity against human HL60 cells after 72 hrs by MTT assay
Type: functional, cell-based
Settings: HL-60, 72 h

Structure (SMILES) | IC50
CC(=O)O[C@@H]1[C@@H](O)[C@H](C)O[C@@H](O[C@H]2C[C@H]3[C@@H]4CC=C5C[C@@H](O[C@@H]6O[C@H](CO)[C@@H](O)[C@H](O)[C@H]6O)CC[C@]5(C)[C@H]4CC[C@]3(C)[C@H]2[C@H](C)[C@@H](O)CC=C(C)C)[C@@H]1O | 6.8 µg/mL (≈ 8.87 µM)
COc1cc([C@@H]2c3cc4c(cc3[C@@H](O[C@@H]3O[C@@H]5CO[C@@H](C)O[C@H]5[C@H](O)[C@H]3O)[C@H]3COC(=O)[C@H]23)OCO4)cc(OC)c1O [ETOPOSIDE] | 0.25 µg/mL (≈ 0.425 µM)
